# Experimental data taken from ChEMBL document CHEMBL1201862, “PubChem BioAssay data set” (2004).
# Active and inactive are the calls of the source.
# Legend:
# [1] = target: T1, Caspase-3 (Homo sapiens, UniProt P42574); format: functional;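 further: Dose-response selectivity test against caspase-3 for candidate inhibitors of sentrin-specific proteases (SENPs)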
# T1 sequence (P42574 whole entry): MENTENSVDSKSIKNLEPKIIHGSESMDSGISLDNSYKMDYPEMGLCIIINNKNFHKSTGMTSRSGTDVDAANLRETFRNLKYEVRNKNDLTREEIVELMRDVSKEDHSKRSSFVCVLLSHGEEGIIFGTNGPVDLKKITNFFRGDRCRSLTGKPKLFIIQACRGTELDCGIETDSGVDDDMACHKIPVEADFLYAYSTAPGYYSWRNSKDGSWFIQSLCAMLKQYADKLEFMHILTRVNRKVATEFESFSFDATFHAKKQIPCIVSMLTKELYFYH
# [2] = target: T2, Sentrin-specific protease 7 (Homo sapiens, UniProt Q9BQF6); format: functional;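 further: Luminescence-based dose-response confirmation of ultra-high-throughput screening hits, measuring inhibition of SENP7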
# T2 sequence (Q9BQF6 whole entry): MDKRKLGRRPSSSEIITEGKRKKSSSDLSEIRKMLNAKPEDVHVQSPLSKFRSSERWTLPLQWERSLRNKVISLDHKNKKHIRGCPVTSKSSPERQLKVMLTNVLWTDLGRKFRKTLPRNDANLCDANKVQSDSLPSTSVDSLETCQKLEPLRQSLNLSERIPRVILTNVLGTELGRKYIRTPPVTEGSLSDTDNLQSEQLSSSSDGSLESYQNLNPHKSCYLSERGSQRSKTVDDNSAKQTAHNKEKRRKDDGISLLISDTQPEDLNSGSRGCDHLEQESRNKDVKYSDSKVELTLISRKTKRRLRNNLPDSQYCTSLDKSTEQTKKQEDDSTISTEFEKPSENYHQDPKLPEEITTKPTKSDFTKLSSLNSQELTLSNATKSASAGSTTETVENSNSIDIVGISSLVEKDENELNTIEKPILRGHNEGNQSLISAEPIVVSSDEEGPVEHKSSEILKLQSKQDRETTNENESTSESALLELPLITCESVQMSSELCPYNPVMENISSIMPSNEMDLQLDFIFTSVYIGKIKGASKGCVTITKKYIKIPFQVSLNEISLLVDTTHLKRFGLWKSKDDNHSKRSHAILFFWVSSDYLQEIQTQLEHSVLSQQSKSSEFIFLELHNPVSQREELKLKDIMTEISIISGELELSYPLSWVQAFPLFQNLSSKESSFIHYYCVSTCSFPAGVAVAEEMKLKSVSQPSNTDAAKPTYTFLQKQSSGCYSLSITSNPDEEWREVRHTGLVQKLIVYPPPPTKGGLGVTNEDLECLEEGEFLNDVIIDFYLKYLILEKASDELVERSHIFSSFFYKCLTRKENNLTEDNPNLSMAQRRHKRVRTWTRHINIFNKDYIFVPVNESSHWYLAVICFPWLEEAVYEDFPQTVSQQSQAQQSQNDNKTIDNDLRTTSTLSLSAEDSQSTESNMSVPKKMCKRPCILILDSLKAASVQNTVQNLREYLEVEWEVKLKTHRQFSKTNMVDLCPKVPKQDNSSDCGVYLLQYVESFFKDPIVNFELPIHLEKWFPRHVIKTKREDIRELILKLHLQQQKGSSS
# [3] = target: T3, Sentrin-specific protease 6 (Homo sapiens, UniProt Q9GZR1); format: functional;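 further: Luminescence-based dose-response confirmatory assay of SENP6 inhibition, following up an ultra-high-throughput screen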
# T3 sequence (Q9GZR1 whole entry): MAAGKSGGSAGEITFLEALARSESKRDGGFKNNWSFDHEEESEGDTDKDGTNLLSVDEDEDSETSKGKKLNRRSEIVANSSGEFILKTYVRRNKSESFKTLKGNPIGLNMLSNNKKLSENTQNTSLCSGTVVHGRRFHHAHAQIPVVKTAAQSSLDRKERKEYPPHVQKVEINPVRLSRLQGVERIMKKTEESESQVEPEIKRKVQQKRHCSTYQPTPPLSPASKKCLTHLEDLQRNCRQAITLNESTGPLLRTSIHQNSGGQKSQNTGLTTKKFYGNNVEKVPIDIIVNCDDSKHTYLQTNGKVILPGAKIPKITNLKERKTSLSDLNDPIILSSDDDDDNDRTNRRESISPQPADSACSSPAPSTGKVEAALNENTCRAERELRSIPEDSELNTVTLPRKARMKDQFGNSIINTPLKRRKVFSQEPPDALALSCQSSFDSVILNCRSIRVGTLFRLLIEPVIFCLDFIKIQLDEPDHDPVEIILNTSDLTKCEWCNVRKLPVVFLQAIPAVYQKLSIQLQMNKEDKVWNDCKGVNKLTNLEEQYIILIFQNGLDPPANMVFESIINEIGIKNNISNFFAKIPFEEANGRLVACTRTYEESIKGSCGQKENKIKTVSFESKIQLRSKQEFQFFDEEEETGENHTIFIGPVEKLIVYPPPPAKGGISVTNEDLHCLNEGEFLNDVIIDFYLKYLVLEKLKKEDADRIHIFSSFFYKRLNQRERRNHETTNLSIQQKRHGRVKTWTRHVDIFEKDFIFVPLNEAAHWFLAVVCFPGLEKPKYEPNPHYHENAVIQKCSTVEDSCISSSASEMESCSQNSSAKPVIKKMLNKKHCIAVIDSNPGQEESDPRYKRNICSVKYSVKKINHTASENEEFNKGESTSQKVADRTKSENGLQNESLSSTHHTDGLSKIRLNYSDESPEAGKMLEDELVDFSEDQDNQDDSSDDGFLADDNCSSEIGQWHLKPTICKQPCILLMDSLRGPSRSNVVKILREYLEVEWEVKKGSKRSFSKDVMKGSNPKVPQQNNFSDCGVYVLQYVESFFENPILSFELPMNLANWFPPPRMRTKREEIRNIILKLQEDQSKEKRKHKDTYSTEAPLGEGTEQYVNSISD
# [4] = target: T4, Sentrin-specific protease 8 (Homo sapiens, UniProt Q96LD8); format: functional;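 further: luminescence read-out of SENP8 inhibition, dose-response confirmation following an ultra-high-throughput screen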
# T4 sequence (Q96LD8 whole entry): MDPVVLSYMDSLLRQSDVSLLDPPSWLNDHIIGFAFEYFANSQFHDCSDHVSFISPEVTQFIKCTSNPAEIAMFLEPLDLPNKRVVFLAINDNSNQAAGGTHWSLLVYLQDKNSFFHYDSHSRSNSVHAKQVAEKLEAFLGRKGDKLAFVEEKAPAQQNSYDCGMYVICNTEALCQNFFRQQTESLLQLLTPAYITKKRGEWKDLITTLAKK
# [5] = target: T5, Tyrosine-protein kinase receptor TYRO3 (Homo sapiens, UniProt Q06418); format: functional;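 further: TYRO3 value obtained as one member of a kinome-wide profiling panel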
# T5 sequence (Q06418 whole entry): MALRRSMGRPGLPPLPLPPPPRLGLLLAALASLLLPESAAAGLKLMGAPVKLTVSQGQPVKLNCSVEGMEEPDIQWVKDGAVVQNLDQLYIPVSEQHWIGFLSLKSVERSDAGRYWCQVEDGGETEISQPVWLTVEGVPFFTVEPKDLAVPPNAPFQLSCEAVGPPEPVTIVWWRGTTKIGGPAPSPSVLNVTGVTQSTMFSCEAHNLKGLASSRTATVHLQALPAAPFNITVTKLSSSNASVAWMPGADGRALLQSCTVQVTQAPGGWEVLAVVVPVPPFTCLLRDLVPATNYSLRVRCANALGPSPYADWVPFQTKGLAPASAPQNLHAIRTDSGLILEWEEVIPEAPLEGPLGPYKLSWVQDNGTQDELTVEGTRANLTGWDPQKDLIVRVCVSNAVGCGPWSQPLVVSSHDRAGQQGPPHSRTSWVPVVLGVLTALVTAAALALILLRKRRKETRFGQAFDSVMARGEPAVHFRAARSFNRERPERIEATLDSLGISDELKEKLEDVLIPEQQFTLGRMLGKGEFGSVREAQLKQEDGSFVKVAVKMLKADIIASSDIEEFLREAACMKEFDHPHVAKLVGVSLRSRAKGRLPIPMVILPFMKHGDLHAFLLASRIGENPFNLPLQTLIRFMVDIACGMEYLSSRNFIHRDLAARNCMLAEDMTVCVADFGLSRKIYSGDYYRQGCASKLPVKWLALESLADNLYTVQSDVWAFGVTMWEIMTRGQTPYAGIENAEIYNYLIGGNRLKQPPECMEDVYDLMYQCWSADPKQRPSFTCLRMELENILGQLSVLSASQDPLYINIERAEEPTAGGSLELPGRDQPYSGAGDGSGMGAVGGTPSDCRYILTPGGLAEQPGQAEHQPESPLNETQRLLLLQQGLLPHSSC
# [6] = target: Dual specificity tyrosine-phosphorylation-regulated kinase 1B (Homo sapiens, UniProt Q9Y463); test: Navigating the Kinome. Panel member name: DYRK1B; format: functional
# [7] = system: BJ; test: BJ-TERT fibroblast viability loss – cell-based, RAS-independent, luminescence, dose response (AID 1933); format: functional; settings: Homo sapiens
# [8] = target: Beta-galactosidase (Escherichia coli, UniProt Q8VNN2); test: PubChem AID 485352; format: functional
# [9] = system: BJ; test: cells; format: functional, cell-based; settings: Homo sapiens
# [10] = target: T6, Type-1 angiotensin II receptor (Homo sapiens, UniProt P30556); test: antagonism of angiotensin II type 1 receptor – cell-based, uHTS hits, selectivity assay for APJ receptor antagonist project, dose response (AID 463214); format: functional;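 further: antagonist potency against angiotensin II stimulated AT1 response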
# T6 sequence (P30556 whole entry): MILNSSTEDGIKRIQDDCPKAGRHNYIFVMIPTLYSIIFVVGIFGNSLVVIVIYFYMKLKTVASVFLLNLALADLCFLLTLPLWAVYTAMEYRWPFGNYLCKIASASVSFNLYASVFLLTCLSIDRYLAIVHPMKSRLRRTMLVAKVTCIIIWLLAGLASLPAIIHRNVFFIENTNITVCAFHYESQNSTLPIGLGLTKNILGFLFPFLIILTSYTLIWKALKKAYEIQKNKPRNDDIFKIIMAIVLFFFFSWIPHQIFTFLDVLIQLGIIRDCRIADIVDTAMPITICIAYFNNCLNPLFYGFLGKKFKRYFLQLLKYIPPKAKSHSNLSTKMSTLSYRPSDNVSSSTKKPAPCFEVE
# [11] = system: BJ; test: BJ-TERT-LT-ST fibroblast viability loss – cell-based, RAS-independent, luminescence, dose response (AID 1935); format: functional; settings: Homo sapiens;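 further: BJ fibroblasts immortalized with TERT plus LT and ST oncogenes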
# [12] = DRD fibroblast viability loss – cell-based, non-viral oncogenic, luminescence, dose response (AID 1934); format: functional; settings: Homo sapiens
# [13] = Luminescence Cell-Based Dose Retest to Confirm Inhibitors of Cancer Stem Cells. [Related pubchem assays (depositor defined):AID2717, AID2721]; format: functional; settings: Homo sapiens
# [14] = system: Vero; test: cells; format: functional, cell-based; settings: Chlorocebus sabaeus
# [15] = system: BJ; test: growth inhibition of engineered Ras-driven BJ cells – cell-based, alamar blue fluorescence, cherrypicked samples, dose response (AID 2631); format: functional; settings: Homo sapiens;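 further: confirmatory dose-response assay in RAS-dependent BJ fibroblasts engineered with TERT, LT and ST, with cytotoxicity read by fluorescence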
# [16] = system: Vero; test: cells; format: functional; settings: Chlorocebus sabaeus
# [17] = reduction of Shn3 3'UTR-driven luciferase in osteoblasts – cell-based, Clone20 osteoblasts, firefly luciferase, cherry-picked, dose response (AID 624132); format: functional;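 further: firefly luciferase luminescence from reporter carrying the Shn3 3'UTR in osteoblasts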
# [18] = loss of viability in HepG2 cells – cell-based, CellTiter-Glo, cherry-picked, cytotoxicity control for Shn3 inhibitor project, dose response (AID 624134); format: functional
# [19] = non-specific 3'UTR reporter inhibition in Clone20-Shn3RL – cell-based, Renilla luciferase, cherry-picked, counter-screen for Shn3 inhibitor project, dose response (AID 624133); format: functional
# [20] = target: T7, Probable nicotinate-nucleotide adenylyltransferase (Staphylococcus aureus (strain N315), UniProt P65502); format: functional, Staphylococcus aureus subsp. aureus N315;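 on IC50 Mean: confirmatory dose-response retesting of NadD inhibitor hits first found in an ultra-high-throughput screen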
# [21] = target: T7, Probable nicotinate-nucleotide adenylyltransferase; format: functional, Staphylococcus aureus subsp. aureus N315; settings: read-out: IC50_Mean
# [22] = target: T8, Rac GTPase-activating protein 1 (Homo sapiens, UniProt Q9H0H5); test: blockers of MgcRacGAP-driven Rac1 GTP hydrolysis – biochemical, ADP Hunter fluorescence, primary and confirmatory, confirmation (AID 624330); format: functional
# T8 sequence (Q9H0H5 whole entry): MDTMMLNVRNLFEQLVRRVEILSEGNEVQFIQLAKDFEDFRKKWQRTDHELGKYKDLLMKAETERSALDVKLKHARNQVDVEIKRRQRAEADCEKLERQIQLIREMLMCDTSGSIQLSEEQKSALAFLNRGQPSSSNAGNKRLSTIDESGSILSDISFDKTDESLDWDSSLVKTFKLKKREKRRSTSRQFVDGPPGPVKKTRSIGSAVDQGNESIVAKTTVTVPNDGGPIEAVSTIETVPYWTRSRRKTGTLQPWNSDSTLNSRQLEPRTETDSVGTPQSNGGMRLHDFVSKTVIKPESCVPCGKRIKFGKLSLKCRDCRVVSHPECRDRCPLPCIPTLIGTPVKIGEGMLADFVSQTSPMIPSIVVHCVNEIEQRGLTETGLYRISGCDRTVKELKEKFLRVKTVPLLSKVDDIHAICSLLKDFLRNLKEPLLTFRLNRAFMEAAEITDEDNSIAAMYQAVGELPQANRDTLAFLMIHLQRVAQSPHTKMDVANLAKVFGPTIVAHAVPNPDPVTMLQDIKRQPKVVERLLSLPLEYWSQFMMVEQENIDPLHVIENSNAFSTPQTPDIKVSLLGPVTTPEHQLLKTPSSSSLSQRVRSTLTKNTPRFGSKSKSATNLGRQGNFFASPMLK
# T7 sequence (P65502 whole entry): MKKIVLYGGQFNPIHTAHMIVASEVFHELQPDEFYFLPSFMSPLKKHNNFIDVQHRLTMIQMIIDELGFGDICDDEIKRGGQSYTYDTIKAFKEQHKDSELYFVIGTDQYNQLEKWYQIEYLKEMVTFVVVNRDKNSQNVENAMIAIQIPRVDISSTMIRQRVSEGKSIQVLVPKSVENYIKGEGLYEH
# Beta-galactosidase, sequence (Q8VNN2 whole entry): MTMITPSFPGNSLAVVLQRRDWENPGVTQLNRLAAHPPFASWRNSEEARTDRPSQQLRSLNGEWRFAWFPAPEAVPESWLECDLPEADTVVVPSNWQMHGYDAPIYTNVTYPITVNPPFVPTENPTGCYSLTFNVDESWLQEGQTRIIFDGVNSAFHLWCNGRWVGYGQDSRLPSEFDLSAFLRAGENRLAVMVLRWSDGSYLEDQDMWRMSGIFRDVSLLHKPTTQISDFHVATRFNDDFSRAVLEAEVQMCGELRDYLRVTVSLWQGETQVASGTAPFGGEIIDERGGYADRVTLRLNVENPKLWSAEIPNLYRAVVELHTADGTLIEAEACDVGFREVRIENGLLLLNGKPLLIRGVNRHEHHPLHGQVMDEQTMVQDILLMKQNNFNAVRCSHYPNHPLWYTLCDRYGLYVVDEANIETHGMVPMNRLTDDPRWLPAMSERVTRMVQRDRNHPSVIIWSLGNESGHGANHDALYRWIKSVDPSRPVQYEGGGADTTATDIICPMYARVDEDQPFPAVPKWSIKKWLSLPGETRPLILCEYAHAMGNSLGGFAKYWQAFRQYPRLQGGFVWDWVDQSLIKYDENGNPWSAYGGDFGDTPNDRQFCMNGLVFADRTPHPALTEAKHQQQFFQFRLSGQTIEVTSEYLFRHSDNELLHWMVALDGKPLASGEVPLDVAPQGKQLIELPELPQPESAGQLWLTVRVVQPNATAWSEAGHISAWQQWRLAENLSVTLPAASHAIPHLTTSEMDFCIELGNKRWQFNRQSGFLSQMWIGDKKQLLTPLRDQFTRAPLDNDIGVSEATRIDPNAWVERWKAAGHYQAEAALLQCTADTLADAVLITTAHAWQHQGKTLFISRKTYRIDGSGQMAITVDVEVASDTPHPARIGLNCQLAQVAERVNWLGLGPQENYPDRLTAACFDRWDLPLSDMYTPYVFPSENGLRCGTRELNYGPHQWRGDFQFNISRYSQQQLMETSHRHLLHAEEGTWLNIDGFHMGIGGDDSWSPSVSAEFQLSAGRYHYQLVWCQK
# Dual specificity tyrosine-phosphorylation-regulated kinase 1B, sequence (Q9Y463 whole entry): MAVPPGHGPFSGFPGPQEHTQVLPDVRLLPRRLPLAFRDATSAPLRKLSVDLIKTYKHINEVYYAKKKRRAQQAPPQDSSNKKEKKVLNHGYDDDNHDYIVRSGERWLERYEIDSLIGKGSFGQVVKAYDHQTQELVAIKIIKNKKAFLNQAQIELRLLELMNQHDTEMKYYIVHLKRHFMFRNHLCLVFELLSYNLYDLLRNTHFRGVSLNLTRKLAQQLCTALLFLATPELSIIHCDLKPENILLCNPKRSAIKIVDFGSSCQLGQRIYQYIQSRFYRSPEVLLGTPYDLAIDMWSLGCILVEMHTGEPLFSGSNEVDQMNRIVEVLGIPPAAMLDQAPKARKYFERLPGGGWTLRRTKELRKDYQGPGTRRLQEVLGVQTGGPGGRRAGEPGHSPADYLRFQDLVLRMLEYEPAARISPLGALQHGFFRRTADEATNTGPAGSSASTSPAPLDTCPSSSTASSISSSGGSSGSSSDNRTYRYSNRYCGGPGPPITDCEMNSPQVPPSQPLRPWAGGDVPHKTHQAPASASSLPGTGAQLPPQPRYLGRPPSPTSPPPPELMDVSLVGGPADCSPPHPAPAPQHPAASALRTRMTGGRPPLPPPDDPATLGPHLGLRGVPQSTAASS
compound,measurement,setting,value
COc1cccc(NC(=O)C(S)=NC2CCCCC2)c1,IC50,[1],17.9 µM (active)
same,IC50,[2],5.39 µM (active)
same,IC50,[3],20.8 µM (active)
same,IC50,[4],23 µM (active)
O=c1[nH]c2cnc(Cl)nc2[nH]1,Ki,[5],79.4 µM (active)
same,Ki,[6],79.4 µM (active)
CCN1C(=O)C(=Cc2cccc(OC)c2Oc2ccc([N+](=O)[O-])cc2[N+](=O)[O-])SC1=S,EC50,[7],2.5 µM (inconclusive)
same,EC50,[8],> 40 µM (inactive)
same,EC50,[9],3.45 µM (inconclusive)
same,IC50,[10],> 40 µM (not active)
same,EC50,[11],3.5 µM (active)
same,EC50,[12],4.38 µM (active)
same,AC50,[13],0.853 µM (active)
same,IC50,[14],> 6.25 µM (active)
same,EC50,[15],2.22 µM (active)
same,CC50,[16],3.96 µM (active)
same,AC50,[17],1.89 µM (active)
same,AC50,[18],5.77 µM (active)
same,AC50,[19],7.11 µM (active)
Cc1ccc(Cl)cc1N1CCN(S(=O)(=O)c2ccc3[nH]c(=O)c(=O)[nH]c3c2)CC1,IC50,[20],7.01 µM (active)
same,IC50,[21],52.8 µM (active)
Cn1cccc1/C=C1\SC(Nc2ccc(O)cc2)=NC1=O,EC50,[9],0.926 µM (inconclusive)
same,EC50,[11],0.357 µM (inconclusive)
same,EC50,[12],0.362 µM (active)
same,EC50,[15],< 0.104 µM (active)
same,IC50,[22],94.8 µM (active)
